# Counter-ions that a name gives are not always drawn.
# Legend:
# Type in all cases: cell-based
# Adenosine 3 receptor = target: T1, Adenosine 3 receptor (Homo sapiens, UniProt P0DMS8); experiment: Agonist activity against adenosine 3 receptor subtype (CHO cells, forskolin-enhanced cAMP, SPAP reporter); details: EC50 ratio to NECA; transfected CHO cells, forskolin-enhanced cAMP reflected by SPAP
# T1 construct: expressed in transfected cells; host or cells: Chinese hamster ovary (CHO) cells, co-transfected with a CRE-SPAP reporter
# T1 sequence (P0DMS8 1-318): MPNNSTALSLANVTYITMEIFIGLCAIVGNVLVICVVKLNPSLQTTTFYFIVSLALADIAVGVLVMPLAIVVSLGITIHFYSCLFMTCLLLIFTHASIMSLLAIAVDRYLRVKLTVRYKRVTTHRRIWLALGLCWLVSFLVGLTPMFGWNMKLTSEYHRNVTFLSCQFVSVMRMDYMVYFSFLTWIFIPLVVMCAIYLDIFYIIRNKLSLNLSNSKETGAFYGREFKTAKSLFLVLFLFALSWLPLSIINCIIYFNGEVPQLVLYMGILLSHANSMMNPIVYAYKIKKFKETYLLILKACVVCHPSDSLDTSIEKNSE
# Method: (§1) (1) Agonist Activity Against Adenosine 2a, Adenosine 1 and Adenosine 3 Receptor Subtypes.
# (§2) Agonist selectivity of compounds against other human adenosine receptors is determined using Chinese hamster ovary (CHO) cells transfected with the gene for the relevant human adenosine receptor following a method based on that of Castanon and Spevak, 1994. The CHO cells are also transfected with cyclic AMP response elements promoting the gene for secreted placental alkaline phosphatase (SPAP) (Wood, 1995). The effect of test compounds may be determined by their effects on basal levels of cAMP (A2a) or on forskolin-enhanced cAMP (A1 and A3) as reflected by changes in levels of SPAP. EC50 values for compounds may then be determined as a ratio to that of the non-selective agonist N-ethyl carboxamide adenosine (NECA).
# (§3) Values given in the Table are EC50 values as a ratio of that of NECA.
# Adenosine 2a receptor = target: T2, Adenosine 2a receptor (Homo sapiens, UniProt P29274); experiment: Agonist activity against adenosine 2a receptor subtype (CHO cells, cAMP response element/SPAP reporter); details: EC50 ratio to NECA; transfected CHO cells, basal cAMP reflected by SPAP
# T2 construct: expressed in transfected cells; host or cells: Chinese hamster ovary (CHO) cells, co-transfected with a CRE-SPAP reporter
# T2 sequence (P29274 whole entry): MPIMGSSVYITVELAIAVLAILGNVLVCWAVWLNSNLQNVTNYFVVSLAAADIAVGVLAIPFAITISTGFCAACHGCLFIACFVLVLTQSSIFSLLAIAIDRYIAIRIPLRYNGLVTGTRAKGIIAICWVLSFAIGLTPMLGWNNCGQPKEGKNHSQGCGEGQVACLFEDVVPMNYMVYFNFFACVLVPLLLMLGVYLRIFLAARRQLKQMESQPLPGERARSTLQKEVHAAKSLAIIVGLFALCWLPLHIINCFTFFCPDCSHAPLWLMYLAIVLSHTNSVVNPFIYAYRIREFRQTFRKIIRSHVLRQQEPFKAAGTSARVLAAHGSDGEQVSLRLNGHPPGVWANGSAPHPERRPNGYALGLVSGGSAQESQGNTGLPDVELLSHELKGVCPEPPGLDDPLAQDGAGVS
# Method: as §1, §2, §3
# Adenosine 1 receptor = target: T3, Adenosine 1 receptor (Homo sapiens, UniProt P30542); experiment: Agonist activity against adenosine 1 receptor subtype (CHO cells, forskolin-enhanced cAMP, SPAP reporter); details: EC50 ratio to NECA; transfected CHO cells, forskolin-enhanced cAMP reflected by SPAP
# T3 construct: expressed in transfected cells; host or cells: Chinese hamster ovary (CHO) cells, co-transfected with a CRE-SPAP reporter
# T3 sequence (P30542 1-326): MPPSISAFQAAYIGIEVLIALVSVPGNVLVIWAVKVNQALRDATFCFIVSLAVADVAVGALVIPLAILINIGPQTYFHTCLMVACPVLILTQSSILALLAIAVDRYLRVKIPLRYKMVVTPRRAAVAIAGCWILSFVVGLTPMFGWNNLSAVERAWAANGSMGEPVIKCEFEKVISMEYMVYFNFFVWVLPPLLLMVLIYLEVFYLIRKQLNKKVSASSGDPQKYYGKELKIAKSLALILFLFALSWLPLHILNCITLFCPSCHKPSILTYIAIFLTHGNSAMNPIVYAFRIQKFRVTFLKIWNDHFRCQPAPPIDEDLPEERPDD
# Method: as §1, §2, §3
Compound,A3 (EC50 values as a ratio of that of NECA) (Adenosine 3 receptor),A2a (EC50 values as a ratio of that of NECA) (Adenosine 2a receptor),A1 (EC50 values as a ratio of that of NECA) (Adenosine 1 receptor)
"CCc1cc(C2OC(n3cnc4c(NC5CCCC5)nc(NCCN5CCCCC5)nc43)C(O)C2O)on1 [Example 8, (2S,3S,4R,5R)-2-(3-Ethyl-isoxazol-5-yl)-5-[6-(cyclopentylamino)-2-(2-piperidin-1-yl)-ethylamino)-purin-9-yl]-tetrahydro-furan-3,4-diol diformate]",>310,0.67,49.1
"CCc1cc(C2OC(n3cnc4c(NCCS(=O)(=O)NC)nc(NC(CO)Cc5ccccc5)nc43)C(O)C2O)on1 (stereo not drawn) [Example 27, 2-[9-[5S-(3-Ethyl-isoxazol-5-yl)-3R,4S-dihydroxy-tetrahydro-furan-2R-yl]-2-(1S-hydroxymethyl-2-phenyl-ethylamino)-9H-purin-6-ylamino]-ethanesulfonic acid methylamide formate]",>273,3,3.18
"CCc1cc([C@H]2O[C@@H](n3cnc4c(NC(CC)CC)nc(NCCN5CCCCC5)nc43)[C@H](O)[C@@H]2O)on1.O=CO.O=CO [Example 6, (2S,3S,4R,5R)-2-(3-Ethyl-isoxazol-5-yl)-5-[6-(1-ethyl-propylamino)-2-(2-piperidin-1-yl-ethylamino)-purin-9-yl]-tetrahydro-furan-3,4-diol diformate]",>393,0.49,66.4
"CCc1cc(C2OC(n3cnc4c(NC5CCOCC5)nc(NC(CO)Cc5ccccc5)nc43)C(O)C2O)on1 [Example 15, (2S,3S,4R,5R)-2-(3-Ethyl-isoxazol-5-yl)-5-[2-(1S-hydroxymethyl-2-phenyl-ethylamino)-6-(tetrahydro-pyran-4-ylamino)-purin-9yl]-tetrahydro-furan-3,4-diol formate]",>146,3.66,26.05
"CCc1cc(C2OC(n3cnc4c(NC5CCS(=O)(=O)CC5)nc(NCCNC(=N)N)nc43)C(O)C2O)on1 (stereo not drawn) [Example 26, N-(2-{6-(1,1-Dioxo-hexahydro-1λ6-thiopyran-4-ylamino)-9-[5S-(3-ethyl-isoxazol-5-yl)-3R ,4S-dihydroxy-tetrahydro-furan-2R-yl]-9H-purin-2-ylamino}-ethyl)-guanidine diformate]",>286,6.89,273.3
"CCc1cc([C@@H]2O[C@H](n3cnc4c(NC5CCSCC5)nc(NCCc5ccccn5)nc43)[C@@H](O)[C@H]2O)on1.O=CO.O=CO [Example 30, (2R,3R,4S,5S)-2-(3Ethyl-isoxazol-5-yl)-5-[2-(2-pyridin-2-yl-ethylamino)-6-(tetrahydro-thiopyran-4-ylamino)-purin-9-yl]-tetrahydro-furan-3,4-diol diformate]",>257,4.58,108.8
"CCc1cc(C2OC(n3cnc4c(NCCc5ccccc5)nc(NCCN5CCCCC5)nc43)C(O)C2O)on1.O=CO.O=CO [Example 3, (2R,3R,4S,5S)-2-(3-Ethyl-isoxazol-5-yl)-5-[6-phenethylamino-2-(2-piperidin-1-yl-ethylamino)-purin-9-yl]-tetrahydro-furan-3,4-diol diformate]",>375,1.32,231
"CCc1cc(C2OC(n3cnc4c(NCc5ccccc5)nc(NCCc5cn(C)cn5)nc43)C(O)C2O)on1 [Example 43, (2R,3R,4S,5S)-2-{6-Benzylamino-2-[2-(1-methyl-1H-imidazol-1-yl)-ethylamino]-purin-9-yl}-5-(3-ethyl-isoxazol-5-yl)-tetrahydro-furan-3,4-diol diformate]",>335,3.53,672.4
"(2S,3S,4R,5R)-2-(3-Ethyl-isoxazol-5yl)-5-[6-(3-iodo-benzylamino)-2-(2-piperidin-1-yl-ethylamino)-purin-9-yl]-tetrahydro-furan-3,4-diol diformate [Example 65]",>262,4.74,128.27
"CCc1cc(C2OC(n3cnc4c(NCC(c5ccccc5)c5ccccc5)nc(NCCN5CCOCC5)nc43)C(O)C2O)on1 [Example 2, (2R,3R,4S,5S)-2-[6-(2,2-Diphenyl-ethylamino)-2-(2-morpholin-4-yl-ethylamino)-purin-9-yl]-5-(3-ethyl-isoxazol-5-yl)-tetrahydro-furan-3,4-diol diformate.]",>545,0.43,88.9
"CCc1cc(C2OC(n3cnc4c(NCc5ccccc5)nc(NCCc5ccccn5)nc43)C(O)C2O)on1.O=CO.O=CO [Example 52, (2S,3S,4R,5R)-2-(3-Ethyl-isoxazol-5-yl)-5-[6-benzylamino-2-(2-pyridin-2-yl-ethylamino)-purin-yl]-tetrahydro-furan-3,4-diol diformate]",>340,21.63,1359.98
"CCc1cc(C2OC(n3cnc4c(NC(CO)C(C)C)nc(NC(CO)Cc5ccccc5)nc43)C(O)C2O)on1 [Example 72, (2S,3S,4R,5R)-2-(3-Ethyl-isoxazol-5-yl)-5-{6-(1S-hydroxymethyl-2-methyl-propylamino)-2-(1S-hydroxymethyl-2-phenyl-ethylamino)-purin-9-yl}-tetrahydro-furan-3,4-diol diformate]",>158,5.39,23.79
"CCc1cc(C2OC(n3cnc4c(NC(CO)C(C)C)nc(NCCNc5ccccn5)nc43)C(O)C2O)on1 [Example 71, (2S,3S,4R,5R)-2-(3-Ethyl-isoxazol-5-yl)-5-{6-(1S-hydroxymethyl-2-methyl-propylamino)-2-[2-(pyridin-2-ylamino)-ethylamino]-purin-9-yl}-tetrahydro-furan-3,4-diol diformate]",>184,12.75,79.51
"CCc1cc(C2OC(n3cnc4c(NC(CC)CC)nc(NCCN5CCOCC5)nc43)C(O)C2O)on1.O=CO.O=CO [Example 38, (2S,3S,4R,5R)-2-(3Ethyl-isoxazol-5-yl)-5-[6(1-ethyl-propylamino)-2-(2-morpholin-4-yl-ethylamino)-purin-9-yl]-tetrahydro-furan-3,4-diol diformate]",>737,5.29,44.1
"CCc1cc(C2OC(n3cnc4c(NC(CC)CC)nc(NCCc5ccccn5)nc43)C(O)C2O)on1 [Example 37, (2S,3S,4R,5R)-2-(3-Ethyl-isoxazol-5-yl)-5-[61-ethyl-propylamino)-2-(2-pyridin-2-yl-ethylamino)-purin-9-yl]-tetrahydro-furan-3,4-diol diformate]",>207,2.65,136.56
"CCc1cc([C@H]2O[C@@H](n3cnc4c(NC(CC)CC)nc(NC5CCOCC5)nc43)[C@H](O)[C@@H]2O)on1.O=CO [Example 48, (2R,3R,4S,5S)-2-[2-(4-tetrahydropyranyl-amino)-6-(1-ethyl-propylamino)-purin-9-yl]-5-(3-ethyl-isoxazol-5-yl)-tetrahydro-furan-3,4-diol formate]",>363,11.48,177.71

# — US6762170B1, “2-(purin-9-yl)-tetrahydrofuran-3,4-diol derivatives” (SmithKlineBeecham Corporation, priority 1998, dated 2004)
